Our source for the mass density values is the NIST ThermoML archive (doi:10.1007/s10765-010-0717-9).

For the data set the following is noted: 298.15 K; 101.33 kPa; Liquid; Pycnometric method.

Structures are written as SMILES. Numbers after ± are expanded uncertainties.

As to `Cc1ccccc1C` [1,2-dimethylbenzene], the mass density is given as 875.99 ± 5.6 kg/m3.

Regarding `Cc1ccc(C)cc1` [1,4-dimethylbenzene], the mass density is 856.58 ± 5.3 kg/m3.

For `Cc1ccccc1` [toluene], the mass density worked out at 862.21 ± 5.4 kg/m3.
